How the values were obtained:
Kinetic solubility assay = type: physicochemical; details: phosphate-buffered saline pH 7.4 with 2% DMSO, aqueous buffer, kinetic from dmso stock; pH 7.4 PBS + 2% DMSO, 25° C., two hours; effective range approximately 2-400 μM
Description: Equipment: Water purification system Millipore Milli-Q Gradient A10 (Millipore, France); Thermomixer R Block, 1.5 ml (Eppendorf, Germany; Cat #5355); Matrix Multichannel Electronic Pipette 2-125 μL, 5-250 μL, 15-1250 μL (Thermo Scientific, USA; Cat ##2011, 2012, 2004); SpectraMax Plus Microplate Reader (Molecular Devices, USA; Product #02196); Multi-Well Plate Vacuum Manifold (Pall Corporation, USA; Product #5014); and Vacuum pump (Millipore, USA; Model #XX5500000)
Analytical System: The measurements were performed using SpectraMax Plus reader in UV-Vis mode. Acquisition and analysis of the data were performed using SoftMax Pro v.5.4 (Molecular Devices) and Excel 2010 data analysis software.
Methods: Briefly, using a 20 mM stock solution of the compound in 100% DMSO dilutions were prepared to a theoretical concentration of 400 μM in duplicates in phosphate-buffered saline pH 7.4 (138 mM NaCl, 2.7 mM KCl, 10 mM K-phosphate) with 2% final DMSO. The experimental compound dilutions in PBS were further allowed to equilibrate at 25° C. on a thermostatic shaker for two hours and then filtered through HTS filter plates using a vacuum manifold. The filtrates of test compounds were diluted 2-fold with acetonitrile with 2% DMSO before measuring.
In parallel, compound dilutions in acetonitrile/PBS (1:1) were prepared to theoretical concentrations of 0 μM (blank), 10 μM, 25 μM, 50 μM, 100 μM, and 200 μM with 2% final DMSO to generate calibration curves. Ondansetron was used as reference compound to control proper assay performance. 200 μL of each sample was transferred to 96-well plate and measured in 200-550 nm range with 5 nm step.
The concentrations of compounds in PBS filtrate are calculated using a dedicated Microsoft Excel calculation script. Proper absorbance wavelengths for calculations are selected for each compound manually based on absorbance maximums (absolute absorbance unit values for the minimum and maximum concentration points within 0-3 OD range). Each of the final datasets is additionally visually evaluated by the operator and goodness of fit (R2) is calculated for each calibration curve. […] This method is not suitable for liquid (at 25° C.) substances (were not present among the tested compounds). Table 3A provides the kinetic solubility for some of the exemplified compounds.

[1] = test system: SW-620 colorectal cancer cell line (KRAS G12V); experiment: Cell proliferation assay (CellTiter 96 Aqueous One); type: cell-based; details: Homo sapiens; SW-620, 2-4 days, 10% FBS
Procedure, shortened: (§1)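 Percent inhibition of proliferation is derived from MTS absorbance data. Cells seeded at 2000–5000 per well were grown overnight before treatment. Compounds, at 10 μM final or in dilution series, stayed on cells for 2–4 days in medium containing 10% FBS and 0.3% DMSO.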

[2] = test system: A-549 NSCLC cell line (KRAS G12S); experiment: as above; type: cell-based; details: Homo sapiens; A549, 2-4 days, 10% FBS
Procedure, shortened: as §1

[3] = test system: PANC-1 pancreatic cancer cell line (KRAS G12D); experiment: as above; type: cell-based; details: Homo sapiens; PANC-1, 2-4 days, 10% FBS
Procedure, shortened: as §1

Structure (SMILES)	solubility kinetic at 2 h (Kinetic solubility assay)	IC50 [1]	IC50 [2]	IC50 [3]
COC1CCCN(c2nc(-c3nccn3C)nc3sc(-c4ccn(C(C)C)n4)c(C)c23)C1 (racemic) [Compound 40, rac-6-(1-Isopropyl-1H-pyrazol-3-yl)-4-(3-methoxypiperidin-1-yl)-5-methyl-2-(1-methyl-1H-imidazol-2-yl)thieno[2,3-d]pyrimidine]	82 µM			
COc1cc(Nc2nc(-c3nccn3C)nc3sc(-c4ccn(C(C)C)n4)c(C)c23)ncn1 [Compound 66, 6-(1-Isopropyl-1H-pyrazol-3-yl)-N-(6-methoxypyrimidin-4-yl)-5-methyl-2-(1-methyl-1H-imidazol-2-yl)thieno[2,3-d]pyrimidin-4-amine]	4 µM			
COCC1CCN(c2nc(-c3nccn3C)nc3sc(-c4ccn(C(C)C)n4)c(C)c23)C1 (racemic) [Compound 38, rac-6-(1-Isopropyl-1H-pyrazol-3-yl)-4-(3-(methoxymethyl)pyrrolidin-1-yl)-5-methyl-2-(1-methyl-1H-imidazol-2-yl)thieno[2,3-d]pyrimidine]	> 400 µM	0.75 to 1 µM	0.75 to 1 µM	0.75 to 1 µM
COCCCNc1nc(-c2nccn2C)nc2sc(-c3ccn(C(C)C)n3)c(C)c12 [Compound 36, 6-(1-Isopropyl-1H-pyrazol-3-yl)-N-(3-methoxypropyl)-5-methyl-2-(1-methyl-1H-imidazol-2-yl)thieno[2,3-d]pyrimidin-4-amine]	268 µM			

Results, then the molecule that gave them:

solubility kinetic at 2 h (Kinetic solubility assay)	IC50 [1]	IC50 [2]	IC50 [3]	Structure (SMILES)
18 µM	< 0.4 µM	0.4 to 0.75 µM	0.4 to 0.75 µM	COC[C@@H]1CC[C@@H]1CNc1nc(-c2nccn2C)nc2sc(-c3ccn(C(C)C)n3)c(C)c12 (racemic) [Compound 63, rac-6-(1-Isopropyl-1H-pyrazol-3-y)-N-(((1S,2R)-2-(methoxymethyl)cyclobutyl)methyl)-5-methyl-2-(1-methyl-1H-imidazol-2-yl)thieno[2,3-d]pyrimidin-4-amine]
5 µM	0.4 to 0.75 µM	0.4 to 0.75 µM	< 0.4 µM	CO[C@@H]1CC[C@H](Nc2nc(-c3nccn3C)nc3sc(-c4ccn(C(C)C)n4)c(-c4ccccc4)c23)C1 [Example 4, 6-(1-isopropyl-1H-pyrazol-3-yl)-N-((1S,3R)-3-methoxycyclopentyl)-2-(1-methyl-1H-imidazol-2-yl)-5-phenylthieno[2,3-d]pyrimidin-4-amine]
49 µM				CO[C@@H]1CC[C@@H](Nc2nc(-c3nccn3C)nc3sc(-c4ccn(C(C)C)n4)c(C)c23)C1 (racemic) [Compound 33, rac-6-(1-Isopropyl-1H-pyrazol-3-yl)-N-((1R,3R)-3-methoxycyclopentyl)-5-methyl-2-(1-methyl-1H-imidazol-2-yl)thieno[2,3-d]pyrimidin-4-amine]
> 400 µM				COC1CCN(c2nc(-c3nccn3C)nc3sc(-c4ccn(C(C)C)n4)c(C)c23)C1 (racemic) [Compound 34, rac-6-(1-Isopropyl-1H-pyrazol-3-yl)-4-(3-methoxypyrrolidin-1-yl)-5-methyl-2-(1-methyl-1H-imidazol-2-yl)thieno[2,3-d]pyrimidine]
76 µM				CO[C@H]1CC(Nc2nc(-c3nccn3C)nc3sc(-c4ccn(C(C)C)n4)c(C)c23)C[C@@H]1OC (racemic) [Compound 44, rac-N-((3S,4S)-3,4-Dimethoxycyclopentyl)-6-(1-isopropyl-1H-pyrazol-3-yl)-5-methyl-2-(1-methyl-1H-imidazol-2-yl)thieno[2,3-d]pyrimidin-4-amine]
79 µM				CO[C@H]1CC[C@@H](Nc2nc(-c3ccccn3)nc3sc(-c4ccn(C(C)C)n4)c(C)c23)C1 (racemic) [Compound 69, Rac-6-(1-isopropyl-1H-pyrazol-3-yl)-N-((1R,3S)-3-methoxycyclopentyl)-5-methyl-2-(pyridine-2-yl)thieno[2,3-d]pyrimidin-4-amine]
